Assay results: ChEMBL document CHEMBL5252609, “Design, synthesis, and antitumor evaluation of morpholine substituted bisnaphthalimides as DNA targeting agents” (Bioorg Med Chem Lett, 2023)
Calls of active or inactive are those of the source. No cut-off for these calls is given here.

Columns and labels:
[1] = tested on: CNE-2; experiment: Induction of cell cycle arrest in human CNE-2 cells assessed as accumulation of cells at G2 phase at 0.5 uM measured after 48 hrs by flow cytometry analysis (Rvb= 6.99%); type: functional
[2] = tested on: MGC-803; experiment: Antitumor activity against human MGC-803 cells xenografted in nude mouse assessed as reduction in tumor weight at 4 mg/kg, ip administrated every other day for 21 days relative to control; type: functional; set-up: scale not given: the % may be the effect or the level left; details: time 21 day
[3] = tested on: CNE-2; experiment: Induction of apoptosis in human CNE-2 cells assessed as early apoptotic cells at 2 uM measured after 24 hrs by annexin-V-FITC and PI staining based flow cytometry analysis (reference value: 0.439%); type: functional
[4] = tested on: CNE-2; experiment: Downregulation of cyclin B level in human CNE-2 cells measured after 48 hrs by Western blot analysis; type: functional, cell-based; details: dose <= 2.0 µM
[5] = tested on: CNE-2; experiment: Induction of apoptosis in human CNE-2 cells assessed as early apoptotic cells at 0.5 uM measured after 24 hrs by annexin-V-FITC and PI staining based flow cytometry analysis (reference value: 0.439%); type: functional
[6] = Toxicity in nude mouse xenografted with human MGC-803 cells assessed as effect on body weight at 4 mg/kg, ip administrated every other day for 21 days; type: organism-based; details: in vivo, 504 h, time 21 day
[7] = tested on: MGC-803; experiment: Antitumor activity against human MGC-803 cells xenografted in nude mouse assessed as reduction in tumor weight at 8 mg/kg, ip administrated every other day for 21 days relative to control; type: functional; set-up: scale not given: the % may be the effect or the level left; details: time 21 day
[8] = tested on: CNE-2; experiment: Induction of cell cycle arrest in human CNE-2 cells assessed as accumulation of cells at G2 phase at 2 uM measured after 48 hrs by flow cytometry analysis (Rvb= 6.99%); type: functional
[9] = tested on: CNE-2; experiment: Induction of cell cycle arrest in human CNE-2 cells assessed as accumulation of cells at G1 phase at 0.5 uM measured after 48 hrs by flow cytometry analysis (Rvb= 73.18%); type: functional
[10] = tested on: CNE-2; experiment: Induction of cell cycle arrest in human CNE-2 cells assessed as accumulation of cells at S phase at 2 uM measured after 48 hrs by flow cytometry analysis (Rvb= 19.83%); type: functional
[11] = tested on: CNE-2; experiment: Induction of apoptosis in human CNE-2 cells at 0.5 to 2 uM by Hoechst 33258 staining based fluorescence microscopic analysis; type: functional, cell-based; details: dose 0.5-2 µM
[12] = tested on: MGC-803; experiment: Toxicity in nude mouse xenografted with human MGC-803 cells assessed as morphological changes in spleen at 8 mg/kg, ip administrated every other day for 21 days; type: functional, organism-based; details: time 21.0 day
[13] = Toxicity in nude mouse xenografted with human MGC-803 cells assessed as effect on body weight at 4 mg/kg, ip administrated every other day measured at 9 to 14 days; type: organism-based; details: in vivo, time 9-14 day
[14] = tested on: MGC-803; experiment: Toxicity in nude mouse xenografted with human MGC-803 cells assessed as morphological changes in heart at 8 mg/kg, ip administrated every other day for 21 days; type: functional, organism-based; details: time 21.0 day
[15] = tested on: CNE-2; experiment: Induction of cell cycle arrest in human CNE-2 cells assessed as accumulation of cells at S phase measured after 48 hrs by flow cytometry analysis; type: functional, cell-based; details: dose 0.5-2 µM
[16] = tested on: MGC-803; experiment: Toxicity in nude mouse xenografted with human MGC-803 cells assessed as morphological changes in kidney at 8 mg/kg, ip administrated every other day for 21 days; type: functional, organism-based; details: time 21.0 day
[17] = tested on: MGC-803; experiment: Toxicity in nude mouse xenografted with human MGC-803 cells assessed as morphological changes in lung at 8 mg/kg, ip administrated every other day for 21 days; type: functional, organism-based; details: time 21.0 day

SMILES	Activity [1] [%]	Activity [2] [%]	Activity [3] [%]	Activity [4]	Activity [5] [%]	Activity [6]	Activity [7] [%]	Activity [8] [%]	Activity [9] [%]	Activity [10] [%]	Activity [11]	Activity [12]	Activity [13]	Activity [14]	Activity [15]	Activity [16]	Activity [17]
CN(C)CCN1C(=O)c2cccc3c(N4CCOCC4)c([N+](=O)[O-])cc(c23)C1=O	7.03	34.4	17	Dose-Dependent Effect	5.68	Toxic	46.9	25.48	72.47	35.62	Active	–	–	–	–	–	–
O=C1c2cccc3c(N4CCOCC4)c([N+](=O)[O-])cc(c23)C(=O)N1CCNCCN1C(=O)c2cccc3c(N4CCOCC4)c([N+](=O)[O-])cc(c23)C1=O	1.55	44.7	2.62	Dose-Dependent Effect	3.7	–	46	11.96	66.68	49.01	Active	Not toxic	Non-Toxic	Not toxic	Dose-Dependent Effect	Not toxic	Not toxic
